Measurements taken from ChEMBL document CHEMBL5724914, “Linking interpersonal differences in gut microbiota composition and drug biotransformation activity” (2024).

What was measured:
[1] = The drug is tested on Z-019 corresponding to rat gut metagenome with ENA study accession number: PRJEB37062 and ENA sample accession number: ERS12561818 for biotransformation under anaerobic condition. The drug concentrations were measured over 9 timepoints collected between 0 and 24 hours of incubation by liquid-chromatography-coupled mass spectrometry (LC–MS); details: 2 µM
[2] = The drug is tested on Z-017 corresponding to mouse gut metagenome with ENA study accession number: PRJEB37062 and ENA sample accession number: ERS12561816 for biotransformation under anaerobic condition. The drug concentrations were measured over 9 timepoints collected between 0 and 24 hours of incubation by liquid-chromatography-coupled mass spectrometry (LC–MS); details: 2 µM
[3] = The drug is tested on Z-007 corresponding to rat gut metagenome with ENA study accession number: PRJEB37062 and ENA sample accession number: ERS12561807 for biotransformation under anaerobic condition. The drug concentrations were measured over 9 timepoints collected between 0 and 24 hours of incubation by liquid-chromatography-coupled mass spectrometry (LC–MS); details: 2 µM
[4] = The drug is tested on Z-003 corresponding to pig gut metagenome with ENA study accession number: PRJEB37062 and ENA sample accession number: ERS12561803 for biotransformation under anaerobic condition. The drug concentrations were measured over 9 timepoints collected between 0 and 24 hours of incubation by liquid-chromatography-coupled mass spectrometry (LC–MS); details: 2 µM
[5] = The drug is tested on Z-002 corresponding to rabbit gut metagenome with ENA study accession number: PRJEB37062 and ENA sample accession number: ERS12561802 for biotransformation under anaerobic condition. The drug concentrations were measured over 9 timepoints collected between 0 and 24 hours of incubation by liquid-chromatography-coupled mass spectrometry (LC–MS); details: 2 µM
[6] = The drug is tested on WLS-240 corresponding to human gut metagenome with ENA study accession number: PRJEB37062 and ENA sample accession number: ERS12561773 for biotransformation under anaerobic condition. The drug concentrations were measured over 9 timepoints collected between 0 and 24 hours of incubation by liquid-chromatography-coupled mass spectrometry (LC–MS); details: 2 µM
[7] = The drug is tested on WLS-098 corresponding to human gut metagenome with ENA study accession number: PRJEB37062 and ENA sample accession number: ERS12561754 for biotransformation under anaerobic condition. The drug concentrations were measured over 9 timepoints collected between 0 and 24 hours of incubation by liquid-chromatography-coupled mass spectrometry (LC–MS); details: 2 µM
[8] = The drug is tested on WLS-073 corresponding to human gut metagenome with ENA study accession number: PRJEB37062 and ENA sample accession number: ERS12561749 for biotransformation under anaerobic condition. The drug concentrations were measured over 9 timepoints collected between 0 and 24 hours of incubation by liquid-chromatography-coupled mass spectrometry (LC–MS); details: 2 µM
[9] = The drug is tested on WLS-069 corresponding to human gut metagenome with ENA study accession number: PRJEB37062 and ENA sample accession number: ERS12561748 for biotransformation under anaerobic condition. The drug concentrations were measured over 9 timepoints collected between 0 and 24 hours of incubation by liquid-chromatography-coupled mass spectrometry (LC–MS); details: 2 µM
[10] = human gut metagenome, 24 h, 2 µM
[11] = human gut metagenome, 24 h, 2 µM; remark: listed apart in the source
[12] = human gut metagenome, 24 h, 2 µM; remark: listed apart in the source
[13] = human gut metagenome, 24 h, 2 µM; remark: listed apart in the source
[14] = human gut metagenome, 24 h, 2 µM; remark: listed apart in the source
[15] = human gut metagenome, 24 h, 2 µM; remark: listed apart in the source
[16] = human gut metagenome, 24 h, 2 µM; remark: listed apart in the source
[17] = human gut metagenome, 24 h, 2 µM; remark: listed apart in the source
[18] = human gut metagenome, 24 h, 2 µM; remark: listed apart in the source
[19] = human gut metagenome, 24 h, 2 µM; remark: listed apart in the source
[20] = human gut metagenome, 24 h, 2 µM; remark: listed apart in the source
Also: call rule not given here.

## O=P1(N(CCCl)CCCl)NCCCO1 (stereo not given) [CYCLOPHOSPHAMIDE ANHYDROUS]
[1]
  Bacterial Biotransformation: Compound NOT metabolized
[2]
  Bacterial Biotransformation: Compound NOT metabolized
[3]
  Bacterial Biotransformation: Compound NOT metabolized
[4]
  Bacterial Biotransformation: Compound NOT metabolized
[5]
  Bacterial Biotransformation: Compound NOT metabolized
[6]
  Bacterial Biotransformation: Compound metabolized
[7]
  Bacterial Biotransformation: Compound metabolized
[8]
  Bacterial Biotransformation: Compound NOT metabolized
[9]
  Bacterial Biotransformation: Compound metabolized
[10]
  Bacterial Biotransformation: Compound metabolized
[11]
  Bacterial Biotransformation: Compound NOT metabolized
[12]
  Bacterial Biotransformation: Compound metabolized
[13]
  Bacterial Biotransformation: Compound metabolized
[14]
  Bacterial Biotransformation: Compound metabolized
[15]
  Bacterial Biotransformation: Compound NOT metabolized
[16]
  Bacterial Biotransformation: Compound metabolized
[17]
  Bacterial Biotransformation: Compound metabolized
[18]
  Bacterial Biotransformation: Compound metabolized
[19]
  Bacterial Biotransformation: Compound metabolized
[20]
  Bacterial Biotransformation: Compound metabolized

## CCN(C)C(=O)Oc1cccc([C@H](C)N(C)C)c1.O=C(O)C(O)C(O)C(=O)O [RIVASTIGMINE TARTRATE]
[1]
  Bacterial Biotransformation: Compound NOT metabolized
[2]
  Bacterial Biotransformation: Compound NOT metabolized
[3]
  Bacterial Biotransformation: Compound NOT metabolized
[4]
  Bacterial Biotransformation: Compound NOT metabolized
[5]
  Bacterial Biotransformation: Compound NOT metabolized
[6]
  Bacterial Biotransformation: Compound metabolized
[7]
  Bacterial Biotransformation: Compound NOT metabolized
[8]
  Bacterial Biotransformation: Compound NOT metabolized
[9]
  Bacterial Biotransformation: Compound NOT metabolized
[10]
  Bacterial Biotransformation: Compound NOT metabolized
[11]
  Bacterial Biotransformation: Compound metabolized
[12]
  Bacterial Biotransformation: Compound NOT metabolized
[13]
  Bacterial Biotransformation: Compound NOT metabolized
[14]
  Bacterial Biotransformation: Compound metabolized
[15]
  Bacterial Biotransformation: Compound metabolized
[16]
  Bacterial Biotransformation: Compound NOT metabolized
[17]
  Bacterial Biotransformation: Compound NOT metabolized
[18]
  Bacterial Biotransformation: Compound NOT metabolized
[19]
  Bacterial Biotransformation: Compound NOT metabolized
[20]
  Bacterial Biotransformation: Compound NOT metabolized

## CCCC(C)(COC(N)=O)COC(=O)NC(C)C (stereo not given) [CARISOPRODOL]
[1]
  Bacterial Biotransformation: Compound NOT metabolized
[2]
  Bacterial Biotransformation: Compound NOT metabolized
[3]
  Bacterial Biotransformation: Compound NOT metabolized
[4]
  Bacterial Biotransformation: Compound metabolized
[5]
  Bacterial Biotransformation: Compound metabolized
[6]
  Bacterial Biotransformation: Compound metabolized
[7]
  Bacterial Biotransformation: Compound metabolized
[8]
  Bacterial Biotransformation: Compound metabolized
[9]
  Bacterial Biotransformation: Compound metabolized
[10]
  Bacterial Biotransformation: Compound NOT metabolized
[11]
  Bacterial Biotransformation: Compound metabolized
[12]
  Bacterial Biotransformation: Compound NOT metabolized
[13]
  Bacterial Biotransformation: Compound metabolized
[14]
  Bacterial Biotransformation: Compound metabolized
[15]
  Bacterial Biotransformation: Compound metabolized
[16]
  Bacterial Biotransformation: Compound metabolized
[17]
  Bacterial Biotransformation: Compound metabolized
[18]
  Bacterial Biotransformation: Compound metabolized
[19]
  Bacterial Biotransformation: Compound metabolized
[20]
  Bacterial Biotransformation: Compound metabolized

## CC(C)(C)N.CCC[C@H](N[C@@H](C)C(=O)N1[C@H](C(=O)O)C[C@@H]2CCCC[C@@H]21)C(=O)OCC [PERINDOPRIL ERBUMINE]
[1]
  Bacterial Biotransformation: Compound NOT metabolized
[2]
  Bacterial Biotransformation: Compound NOT metabolized
[3]
  Bacterial Biotransformation: Compound NOT metabolized
[4]
  Bacterial Biotransformation: Compound metabolized
[5]
  Bacterial Biotransformation: Compound metabolized
[6]
  Bacterial Biotransformation: Compound metabolized
[7]
  Bacterial Biotransformation: Compound metabolized
[8]
  Bacterial Biotransformation: Compound NOT metabolized
[9]
  Bacterial Biotransformation: Compound metabolized
[10]
  Bacterial Biotransformation: Compound metabolized
[11]
  Bacterial Biotransformation: Compound NOT metabolized
[12]
  Bacterial Biotransformation: Compound metabolized
[13]
  Bacterial Biotransformation: Compound metabolized
[14]
  Bacterial Biotransformation: Compound metabolized
[15]
  Bacterial Biotransformation: Compound NOT metabolized
[16]
  Bacterial Biotransformation: Compound metabolized
[17]
  Bacterial Biotransformation: Compound metabolized
[18]
  Bacterial Biotransformation: Compound metabolized
[19]
  Bacterial Biotransformation: Compound metabolized
[20]
  Bacterial Biotransformation: Compound metabolized

## CCN(C(C)=O)c1cccc(-c2ccnc3c(C#N)cnn23)c1 [ZALEPLON]
[1]
  Bacterial Biotransformation: Compound NOT metabolized
[2]
  Bacterial Biotransformation: Compound NOT metabolized
[3]
  Bacterial Biotransformation: Compound NOT metabolized
[4]
  Bacterial Biotransformation: Compound metabolized
[5]
  Bacterial Biotransformation: Compound metabolized
[6]
  Bacterial Biotransformation: Compound metabolized
[7]
  Bacterial Biotransformation: Compound metabolized
[8]
  Bacterial Biotransformation: Compound metabolized
[9]
  Bacterial Biotransformation: Compound metabolized
[10]
  Bacterial Biotransformation: Compound metabolized
[11]
  Bacterial Biotransformation: Compound metabolized
[12]
  Bacterial Biotransformation: Compound metabolized
[13]
  Bacterial Biotransformation: Compound metabolized
[14]
  Bacterial Biotransformation: Compound metabolized
[15]
  Bacterial Biotransformation: Compound NOT metabolized
[16]
  Bacterial Biotransformation: Compound metabolized
[17]
  Bacterial Biotransformation: Compound metabolized
[18]
  Bacterial Biotransformation: Compound metabolized
[19]
  Bacterial Biotransformation: Compound metabolized
[20]
  Bacterial Biotransformation: Compound metabolized

## CC(C)[C@H]1CC[C@H](C(=O)N[C@H](Cc2ccccc2)C(=O)O)CC1 [NATEGLINIDE]
[1]
  Bacterial Biotransformation: Compound NOT metabolized
[2]
  Bacterial Biotransformation: Compound NOT metabolized
[3]
  Bacterial Biotransformation: Compound NOT metabolized
[4]
  Bacterial Biotransformation: Compound metabolized
[5]
  Bacterial Biotransformation: Compound metabolized
[6]
  Bacterial Biotransformation: Compound metabolized
[7]
  Bacterial Biotransformation: Compound metabolized
[8]
  Bacterial Biotransformation: Compound metabolized
[9]
  Bacterial Biotransformation: Compound metabolized
[10]
  Bacterial Biotransformation: Compound metabolized
[11]
  Bacterial Biotransformation: Compound metabolized
[12]
  Bacterial Biotransformation: Compound metabolized
[13]
  Bacterial Biotransformation: Compound metabolized
[14]
  Bacterial Biotransformation: Compound metabolized
[15]
  Bacterial Biotransformation: Compound metabolized
[16]
  Bacterial Biotransformation: Compound metabolized
[17]
  Bacterial Biotransformation: Compound metabolized
[18]
  Bacterial Biotransformation: Compound metabolized
[19]
  Bacterial Biotransformation: Compound metabolized
[20]
  Bacterial Biotransformation: Compound metabolized
